What was measured:
[1] = test system: Gray mold germs (Botrytis cinerea, strain 2018105); test: Evaluation test for gray mold (mycelial growth on PDA medium); format: cell-based; conditions: final concentration 500 ppm in PDA medium; mycelia diameter after two days at 27° C.; average of 3
Description: The fluorine-containing pyrimidine compound prepared in Example 1, 2, 3, 4, 12 or 16 was dissolved in DMSO and diluted to a concentration of 50000 ppm. To 3 ml of a dissolved PDA medium, 30 μL of diluted DMSO solution each was added and stirred with a pipette. The mixture was placed in a well of a 6-well plate and allowed to solidify (final concentration: 500 ppm, repeated 3 times each). Gray mold germs (Botrytis cinerea, strain 2018105) grown in a PDA medium was cut out together with the medium with a biopsy punch having a diameter of 0.4 cm, and placed on the center of the PDA medium in the 6-well plate containing the DMSO solution so as to be grown at 27° C. After two days, the diameters of mycelia were measured and the control value was calculated. The control value was calculated according to the following formula. In the formula described below, “untreated” represents PDA medium to which only DMSO was added as the test solution. [formula]

cucumber powdery mildew = test: Evaluation test for powdery mildew of cucumbers (cucumber leaf disc); format: in vivo; conditions: blotch area after 12 days, 25° C.
Description: A fluorine-containing pyrimidine compound prepared in Examples 12, 13 or 15 was dissolved in acetone and diluted to a concentration of 500 ppm. Subsequently, a cucumber leaf disc (diameter 20 mm) was placed in a diluted acetone solution and completely wetted. The cucumber leaf disc was then placed so that the back surface of the cucumber leaf disc contacted a separately prepared plain agar medium, and air-dried. After air-drying, a cucumber powdery mildew spore suspension was evenly sprayed on the cucumber leaf disc and air-dried. The cucumber leaf disc was then allowed to stand in an incubator (25° C., illuminated for 12 hours), and after 12 days, the blotch area was examined to calculate the control value. The control value was calculated according to the following formula. In the following formula, “untreated” means that the cucumber leaf disc was wetted with only acetone as the test solution, and “untreated section” represents the corresponding section. A fluorine-containing pyrimidine compound prepared in Examples 12, 13 or 15 was dissolved in acetone and diluted to a concentration of 100 ppm. Subsequently, a cucumber leaf disc (diameter 20 mm) was placed in a diluted acetone solution and completely wetted. The cucumber leaf disc was placed so that the back surface of the cucumber leaf disc contacted a separately prepared plain agar medium, and air-dried. After air-drying, a cucumber powdery mildew spore suspension was evenly prayed on the cucumber leaf disc and air-dried. The cucumber leaf disc was then allowed to stand in an incubator (25° C., illuminated for 12 hours), and after 12 days, the blotch area was examined to calculate the control value. The control value was calculated according to the following formula. In the following formula, “untreated” means that the cucumber leaf disc was wetted with only acetone as the test solution, and “untreated section” represents the corresponding section. [formula] (Evaluation Test for Gray Mold (500 ppm))

| Compound | Control value [1] | Control value (cucumber powdery mildew; 100 ppm in acetone) | Control value (cucumber powdery mildew; 500 ppm in acetone) |
| --- | --- | --- | --- |
| COc1nc(-c2ccccn2)nc(Nc2ccc(C)c(C)c2)c1C(F)(F)F [Example 4, 6-methoxy-N-(3,4-dimethylphenyl)-2-(2-pyridyl)-5-(trifluoromethyl)-4-pyrimidinamine] | 86.8 |  |  |
| COc1nc(-c2ccccn2)nc(Nc2ccc(C)cc2C)c1C(F)(F)F [Example 12, 6-methoxy-N-(2,4-dimethylphenyl)-2-(2-pyridyl)-5-(trifluoromethyl)-4-pyrimidinamine] | 94.3 | 91.8 | 100.0 |
| CCCCc1ccc(Nc2nc(-c3ccccn3)nc(OC)c2C(F)(F)F)cc1 [Example 3, N-(4-butylphenyl)-6-methoxy-2-(2-pyridyl)-5-(trifluoromethyl)-4-pyrimidinamine] | 76.9 |  |  |
| COc1nc(-c2ccccn2)nc(Nc2ccc(C)cc2)c1C(F)(F)F [Example 15, 6-methoxy-N-(4-methylphenyl)-2-(2-pyridyl)-5-(trifluoromethyl)-4-pyrimidinamine] |  | 100.0 | 100.0 |
| COc1nc(-c2ccccn2)nc(Nc2cccc(C)c2)c1C(F)(F)F [Example 2, 6-methoxy-N-(3-methylphenyl)-2-(2-pyridyl)-5-(trifluoromethyl)-4-pyrimidinamine] | 86.8 |  |  |
| COc1nc(-c2ccccn2)nc(Nc2ccccc2)c1C(F)(F)F [Example 1, 6-methoxy-N-phenyl-2-(2-pyridyl)-5-(trifluoromethyl)-4-pyrimidinamine] | 90.5 |  |  |
| COc1nc(-c2ccccn2)nc(Nc2ccc(Cl)cc2)c1C(F)(F)F [Example 13, N-(4-chlorophenyl)-6-methoxy-2-(2-pyridyl)-5-(trifluoromethyl)-4-pyrimidinamine] |  | 80.0 | 98.8 |
| FC(F)(F)c1c(Cl)nc(-c2ccccn2)nc1Nc1ccccc1 [Example 16, 6-chloro-N-phenyl-2-(2-pyridyl)-5-(trifluoromethyl)-4-pyrimidinamine] | 92.4 |  |  |

From patent publication US12522580B2, “Fluorine-containing pyrimidine compounds, harmful fungus control agent, and method for producing fluorine-containing pyrimidine compounds” (UNIMATEC CO., LTD., priority 2021, dated 2026)
